Earlier results in US20220331292A1, “COMPOSITIONS AND METHODS FOR DELIVERY OF PSILOCIN AND PRODRUGS THEREOF” (priority 2021, published 2022).

Columns and labels:
[1] = target: 5-HT2a serotonin receptor (Homo sapiens, UniProt P28223)
[2] = not given; remark: listed apart in the source
[3] = psilocin after escalating doses of psilocybin

5-HT2a serotonin receptor, sequence (P28223 whole entry): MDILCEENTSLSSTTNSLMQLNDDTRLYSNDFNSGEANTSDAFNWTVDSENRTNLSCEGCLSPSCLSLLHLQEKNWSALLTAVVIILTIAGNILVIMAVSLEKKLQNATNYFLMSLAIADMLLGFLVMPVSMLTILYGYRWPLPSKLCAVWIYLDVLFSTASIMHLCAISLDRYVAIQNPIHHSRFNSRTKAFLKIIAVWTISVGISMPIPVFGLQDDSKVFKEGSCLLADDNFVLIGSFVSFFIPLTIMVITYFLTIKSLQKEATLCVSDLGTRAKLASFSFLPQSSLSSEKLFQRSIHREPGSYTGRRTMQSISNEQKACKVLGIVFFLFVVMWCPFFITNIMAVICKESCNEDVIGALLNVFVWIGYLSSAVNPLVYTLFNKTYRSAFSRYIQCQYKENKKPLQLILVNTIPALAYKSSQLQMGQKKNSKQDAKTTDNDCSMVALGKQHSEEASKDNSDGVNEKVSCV

SMILES	binding affinity with 5-HT2a [1]	half-life [3]	pharmacokinetics (linearity) [3]	share of metabolized psilocybin excreted in the urine as psilocin-O-glucuronide [2]	serious physical or psychological events (oral 0.3, 0.45 and 0.6 mg/kg at monthly intervals, during or within 30 days of any dose)
CN(C)CCc1c[nH]c2cccc(O)c12 [Psilocin, psilocin]	high binding affinity	three	linear		
CN(C)CCc1c[nH]c2cccc(OP(=O)(O)O)c12 [Psilocybin, psilocybin]				About 80%	no serious physical or psychological events
